In patent publication US20140296147A1, “METHODS OF TREATING OR PREVENTING BLOOD LOSS DURING SURGERY USING THE SERINE PROTEASE INHIBITOR MDCO-2010” (THE MEDICINES COMPANY, priority 2011, published 2014):
Where two headings read alike, the source gives them in different places. Marks after values point to notes of the source that are not given here.

Columns and labels:
coagulation Factor Xa = coagulation Factor Xa (Homo sapiens, UniProt P00742); settings: cited from earlier work
tPA-induced fibrinolysis = test: Antifibrinolytic effect: D-dimer generation and tPA-induced lysis in CABG patients; assay type: in vivo, human; settings: five escalating doses, FIG. 2
Experimental: (§1) A Phase IIa, single-center, double-blind, placebo-controlled dose-escalation study was performed to investigate MDCO-2010 in patients undergoing elective, primary CABG (coronary artery bypass graft) surgery.
(§2) Initial heparin dosing (400 units/kg) and heparin maintenance was guided by the Hepcon HMS, with a kaolin ACT target of 480 seconds. Immediately after heparin bolus, study drug administration was initiated with a loading (bolus) dose followed by a continuous infusion of the maintenance dose via a central venous catheter until sternal closure. Patients were randomized in a 3:1 ratio to receive either one of five MDCO-2010 doses (continuous infusion of 12.5, 25, 62.5, 109 or 219 μg/kg/h maintenance dose; 24 patients) or saline as placebo (8 patients).

[1] = system: patients undergoing elective, primary CABG (coronary artery bypass graft) surgery; test: Phase IIa placebo-controlled dose-escalation study: postoperative blood loss and transfusions; assay type: in vivo, human
Experimental: as §1
After independent ethics committee approval and written informed consent, thirty two patients underwent CABG surgery (patient characteristics shown in Table 1) through midline sternotomy using minimized extracorporeal circulation (MECC, priming volume of 600 mL).
Initial heparin dosing (400 units/kg) and heparin maintenance was guided by the Hepcon HMS, with a kaolin ACT target of 480 seconds. Immediately after heparin bolus, study drug administration was initiated with a loading (bolus) dose followed by a continuous infusion of the maintenance dose via a central venous catheter until sternal closure. Patients were randomized in a 3:1 ratio to receive either one of five MDCO-2010 doses (continuous infusion of 12.5, 25, 62.5, 109 or 219 μg/kg/h maintenance dose; 24 patients) or saline as placebo (8 patients). […]
loading dose 5 μg/kg, maintenance dose 12.5 μg/kg/h; pump prime 0.02 mg; 3 patients loading dose 11 μg/kg, maintenance dose 25 μg/kg/h; pump prime 0.04 mg; 3 patients loading dose 27 μg/kg, maintenance dose 62.5 μg/kg/h; pump prime 0.09 mg; 6 patients loading dose 47 μg/kg, maintenance dose 109 μg/kg/h; pump prime 0.18 mg; 6 patients loading dose 94 μg/kg, maintenance dose 219 μg/kg/h; pump prime 0.35 mg; 6 patients The loading dose was administered over a five minute period of time in a 10 mL infusion. The maintenance dose was administered as a continuous infusion with a constant flow rate of 23 mL/h for the duration of procedure. MDCO-2010 was also added to the pump prime fluid to the targeted plasma concentration. The pump prime was supplied as a 10 mL load.

coagulation Factor XIa = coagulation Factor XIa (Homo sapiens, UniProt P03951); settings: cited from earlier work
[2] = system: intrinsic and extrinsic pathways; test: Anticoagulant effect: ACT, aPTT and ROTEM coagulation times in CABG patients; assay type: in vivo, human; settings: five escalating doses, FIG. 3
Experimental: as §1, §2

[3] = Plasma pharmacokinetics of MDCO-2010 (LC/MS/MS, non-compartmental analysis) during CABG surgery; assay type: in vivo, human; settings: for half-life / clearance / Vd / AUC(0-inf) / AUC(0-t) / Cmax: human, plasma
Experimental: Nominal blood sampling times for PK analysis were pre-dose (T1, pre-heparin) and at 10 min (pre-CBP), 15 min, 30 min, 60 min (or just before cessation of CPB), at the end of infusion (sternal closure), 15 min, 30 min, and at 4 hours post-end of infusion. Actual times were calculated for each patient and used for PK analysis.
MDCO-2010 was measured in plasma by liquid chromatography with tandem mass spectrometry (LC/MS/MS).
Plasma concentrations versus time data were analyzed by non-compartmental analysis using the program WinNonlin Professional Version 5.3 (Pharsight, Mountain View, Calif., USA). Actual sampling times were used for the evaluation.
The following parameters were determined: • AUC0-tlast=area under the MDCO-2010 concentration versus time curve from dosing time to the last time point with a value above the lower limit of quantitation (LLOQ), calculated by linear/log trapezoidal method which uses the linear trapezoidal rule up to Cmax and log trapezoidal rule for the remainder of the curve • AUC0-inf=area under the concentration-time curve from […]; calculated as AUC0-tlast+AUCexpol, where AUCexpol=Clast/λ • Css=steady-state plasma concentration calculated by taking the average of the concentrations in T4 to T7 • Cmax=maximum concentration, directly taken from measured values • t1/2=apparent terminal elimination half-life determined by log-linear regression • CL=total body clearance • Vss=volume of distribution at steady state
Descriptive statistics (number of subjects, arithmetic means, standard deviation (SD), geometric means, medians, minimum and maximum values) were determined for all PK variables, separately for each treatment. Values below the LLOQ of the assay were taken as zero for descriptive statistics of concentrations. For AUC calculations, values below LLOQ were taken as zero if no quantifiable concentrations were found before the value, as missing if quantifiable concentrations were found before and after the value, and also as missing if quantifiable concentrations were found before, but not after the value. Mean (±SD) concentration time plots were provided for each treatment group using linear and semi-logarithmic scale.
Dose proportionality was assessed by the power model using SAS Version 9 (SAS Institute Inc., Cary, N.C.).
The mean values for PK parameters per dose group (mean (±SD) pharmacokinetic variables of MDCO-2010 administered via IV infusion during CABG surgery based on non-compartmental analysis) are summarized in Table 3.

[4] = system: patients undergoing elective, primary CABG (coronary artery bypass graft) surgery; test: Safety markers and safety profile in CABG patients; assay type: in vivo, human
Experimental: as §1, §2

plasma kallikrein = plasma kallikrein (Homo sapiens, UniProt P03952); settings: active-site directed, reversible, no cofactor; cited from earlier work
plasmin = plasmin (Homo sapiens, UniProt P00747); settings: active-site directed, reversible, no cofactor; cited from earlier work
activated Protein C = activated Protein C (Homo sapiens, UniProt P04070); settings: cited from earlier work
[5] = Cohort 1 (N = 3): loading dose 5 μg/kg, maintenance dose 12.5 μg/kg/h
[6] = Cohort 2 (N = 3): loading dose 11 μg/kg, maintenance dose 25 μg/kg/h
[7] = Cohort 3 (N = 6): loading dose 27 μg/kg, maintenance dose 62.5 μg/kg/h
[8] = Cohort 4 (N = 6): loading dose 47 μg/kg, maintenance dose 109 μg/kg/h
[9] = Cohort 5 (N = 6): loading dose 94 μg/kg, maintenance dose 219 μg/kg/h, 1 patient received additional heparin without protamine reversal
[10] = Cohort 1, mean dose 1.88 mg, IV infusion during CABG surgery, mean
[11] = Cohort 2, mean dose 4.99 mg, IV infusion during CABG surgery, mean
[12] = Cohort 3, mean dose 12.33 mg, IV infusion during CABG surgery, mean
[13] = Cohort 4, mean dose 19.57 mg, IV infusion during CABG surgery, mean
[14] = Cohort 5, mean dose 38.01 mg, IV infusion during CABG surgery, mean

coagulation Factor Xa, sequence (P00742 235-488 limits assumed): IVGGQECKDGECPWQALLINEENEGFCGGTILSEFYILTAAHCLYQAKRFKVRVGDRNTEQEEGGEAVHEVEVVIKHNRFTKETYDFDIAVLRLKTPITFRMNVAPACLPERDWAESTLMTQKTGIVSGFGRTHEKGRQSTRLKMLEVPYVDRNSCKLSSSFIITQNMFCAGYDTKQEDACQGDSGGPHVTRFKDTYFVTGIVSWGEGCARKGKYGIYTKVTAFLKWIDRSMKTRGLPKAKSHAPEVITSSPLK
coagulation Factor Xa, sequence (P00742 41-179 partner limits assumed): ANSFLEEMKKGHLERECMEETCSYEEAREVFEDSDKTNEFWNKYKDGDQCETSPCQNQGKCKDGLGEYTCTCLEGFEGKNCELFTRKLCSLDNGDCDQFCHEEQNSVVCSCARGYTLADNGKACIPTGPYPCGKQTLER
coagulation Factor XIa, sequence (P03951 388-625 limits assumed): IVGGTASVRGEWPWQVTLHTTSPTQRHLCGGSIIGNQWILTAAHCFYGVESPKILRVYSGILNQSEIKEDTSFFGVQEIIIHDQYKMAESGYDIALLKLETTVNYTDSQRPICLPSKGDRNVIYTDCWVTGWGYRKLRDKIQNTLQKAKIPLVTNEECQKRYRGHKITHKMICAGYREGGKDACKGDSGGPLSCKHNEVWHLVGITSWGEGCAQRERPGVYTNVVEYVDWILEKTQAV
coagulation Factor XIa, sequence (P03951 19-387 partner limits assumed): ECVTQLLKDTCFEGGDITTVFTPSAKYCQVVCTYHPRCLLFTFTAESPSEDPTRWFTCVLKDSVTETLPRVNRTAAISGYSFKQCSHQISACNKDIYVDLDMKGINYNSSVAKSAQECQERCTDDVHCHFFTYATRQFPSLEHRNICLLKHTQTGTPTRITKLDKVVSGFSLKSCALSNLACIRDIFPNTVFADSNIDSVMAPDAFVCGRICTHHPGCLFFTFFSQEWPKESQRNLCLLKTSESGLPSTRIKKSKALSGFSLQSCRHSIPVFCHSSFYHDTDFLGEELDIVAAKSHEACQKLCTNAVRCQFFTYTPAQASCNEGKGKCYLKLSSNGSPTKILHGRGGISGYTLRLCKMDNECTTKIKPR
plasmin, sequence (P00747 581-810 limits assumed): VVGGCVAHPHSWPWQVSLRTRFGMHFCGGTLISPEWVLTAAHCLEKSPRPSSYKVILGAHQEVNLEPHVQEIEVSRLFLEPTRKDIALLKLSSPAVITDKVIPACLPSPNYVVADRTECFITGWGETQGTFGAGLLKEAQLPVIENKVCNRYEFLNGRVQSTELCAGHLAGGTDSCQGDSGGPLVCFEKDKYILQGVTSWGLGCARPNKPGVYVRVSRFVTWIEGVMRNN
plasmin, sequence (P00747 97-580 partner limits assumed): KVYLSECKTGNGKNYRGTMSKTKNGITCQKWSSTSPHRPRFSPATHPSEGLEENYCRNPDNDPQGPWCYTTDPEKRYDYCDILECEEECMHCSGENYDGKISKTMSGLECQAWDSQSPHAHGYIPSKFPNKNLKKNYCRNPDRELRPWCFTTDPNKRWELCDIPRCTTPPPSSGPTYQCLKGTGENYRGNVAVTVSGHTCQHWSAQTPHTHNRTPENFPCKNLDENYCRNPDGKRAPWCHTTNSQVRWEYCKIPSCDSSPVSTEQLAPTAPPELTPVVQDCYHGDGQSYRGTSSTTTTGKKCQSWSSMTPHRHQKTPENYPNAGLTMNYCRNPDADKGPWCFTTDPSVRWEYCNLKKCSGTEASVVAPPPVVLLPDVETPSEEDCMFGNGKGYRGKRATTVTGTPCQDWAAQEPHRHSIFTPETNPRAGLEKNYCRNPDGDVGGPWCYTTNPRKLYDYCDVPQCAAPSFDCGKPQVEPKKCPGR
activated Protein C, sequence (P04070 212-461 limits assumed): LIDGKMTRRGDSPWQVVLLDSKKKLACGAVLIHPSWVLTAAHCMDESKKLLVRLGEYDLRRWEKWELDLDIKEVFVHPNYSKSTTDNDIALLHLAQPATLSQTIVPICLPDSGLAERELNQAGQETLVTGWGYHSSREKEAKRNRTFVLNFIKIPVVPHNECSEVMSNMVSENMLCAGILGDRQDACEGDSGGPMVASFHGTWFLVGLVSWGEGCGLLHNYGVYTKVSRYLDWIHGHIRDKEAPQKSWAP
activated Protein C, sequence (P04070 43-197 partner limits assumed): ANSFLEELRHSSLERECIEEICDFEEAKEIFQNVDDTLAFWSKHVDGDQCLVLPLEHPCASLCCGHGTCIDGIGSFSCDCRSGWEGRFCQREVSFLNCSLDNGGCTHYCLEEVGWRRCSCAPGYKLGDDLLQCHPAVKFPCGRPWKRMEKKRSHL
plasma kallikrein, sequence (P03952 391-638 limits assumed): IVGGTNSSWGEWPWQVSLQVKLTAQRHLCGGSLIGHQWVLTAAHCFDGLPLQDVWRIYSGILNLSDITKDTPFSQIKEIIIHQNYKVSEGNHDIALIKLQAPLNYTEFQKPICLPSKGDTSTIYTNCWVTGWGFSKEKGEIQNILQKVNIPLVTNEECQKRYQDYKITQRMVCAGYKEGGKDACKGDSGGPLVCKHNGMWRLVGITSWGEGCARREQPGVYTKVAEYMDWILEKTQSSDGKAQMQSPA
plasma kallikrein, sequence (P03952 20-390 partner limits assumed): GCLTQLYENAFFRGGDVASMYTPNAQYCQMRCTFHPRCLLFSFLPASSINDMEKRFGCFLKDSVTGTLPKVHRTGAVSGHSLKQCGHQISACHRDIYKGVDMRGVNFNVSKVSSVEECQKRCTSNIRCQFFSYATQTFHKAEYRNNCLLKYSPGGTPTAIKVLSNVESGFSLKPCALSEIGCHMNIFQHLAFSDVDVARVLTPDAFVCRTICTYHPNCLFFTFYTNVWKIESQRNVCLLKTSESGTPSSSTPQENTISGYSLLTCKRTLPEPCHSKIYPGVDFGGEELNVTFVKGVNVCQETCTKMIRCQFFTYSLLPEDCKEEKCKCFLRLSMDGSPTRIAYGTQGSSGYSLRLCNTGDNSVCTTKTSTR

For `N=C(N)c1ccc(CNC(=O)[C@H](Cc2cccc(CN)c2)NC(=O)[C@@H](CCCc2ccccc2)NS(=O)(=O)Cc2cccc(C(=O)O)c2)cc1` [MDCO-2010, 3-({1-[2-(3-Aminomethyl-phenyl)-1-(4-carbamimidoyl-benzylcarbamoyl)-ethylcarbamoyl]-4-phenyl-butylsulfamoyl}-methyl)-benzoic acid], the “inhibition of coagulation Factor Xa” value (coagulation Factor Xa) is given as “inhibits”, the “antifibrinolytic effect (suppression of D-dimer generation and inhibition of tPA-induced lysis)” value (tPA-induced fibrinolysis) is given as “dose-dependent antifibrinolytic effect” and the “12 hour postoperative chest tube drainage, median ± SD” value [1, 5] is given as 450 ± 172 mL. The “Average number of transfusions per patient” value (“Average number … per patient” below) [1, 5] was 0, the Patients receiving transfusions [1, 5] was 0/3 and the “12 hour postoperative chest tube drainage, median ± SD” value [1, 6] was 595 ± 125 mL. The “Average number … per patient” value [1, 6] was 0, the Patients receiving transfusions [1, 6] was 0/3 and the “Average number … per patient” value [1, 7] was 0.33. The Patients receiving transfusions [1, 7] was 1/6, the “Average number … per patient” value [1, 8] was 0.17 and the Patients receiving transfusions [1, 8] was 1/6. The “Average number … per patient” value [1, 9] was 0.67†, the Patients receiving transfusions [1, 9] was 2/6† and the “Chest tube drainage, incidence and volume of RBC transfusions vs. placebo” value ([1]; MDCO-2010 vs. placebo) was “significantly lower”. The “inhibition of coagulation Factor XIa” value (coagulation Factor XIa) was “inhibits”, the “ACT, aPTT and rotation thrombelastometry (ROTEM) coagulation times” value [2] was “dose-related prolongation” and the Css [3, 10] was 50.06 ng/mL. It also gave a Css [3, 11] of 96.31 ng/mL, a Css [3, 12] of 268.21 ng/mL and a Css [3, 13] of 478.86 ng/mL. The Css [3, 14] was 1009.17 ng/mL, the “plasma levels during the infusion” value ([3]; continuous infusion, FIG. 1) was “stable” and the “mean MDCO-2010 plasma concentrations versus dose” value ([3]; five escalating doses, CABG patients) was “linear dose-proportional increase”. It also gave a half-life ([3]; intravenous, following an approximately 100 minute infusion period, all cohorts, read-out: mean value for the elimination half-life) of about 1.38 h, a half-life ([3]; intravenous, after end of infusion, CABG patients, read-out: terminal half-life (converted)) of 1 h and a half-life ([3]; intravenous, range over cohorts, read-out: elimination half-life, range) of 1.02 to 1.7 h. For the same compound, the clearance ([3]; intravenous, 1.88 mg total dose, read-out: Total body clearance) was 220 ± 78 mL/min, the clearance ([3]; intravenous, 38.01 mg total dose, read-out: Total body clearance) was 153 ± 19 mL/min and the Vd ([3]; intravenous, all dose levels, read-out: Volume of distribution (Vss), range) was 12 to 17 L. For the same compound, the half-life ([3]; iv, 1.88 mg, Cohort 1, mean dose 1.88 mg, IV infusion during CABG surgery, mean, read-out: t1/2) was 1.02 h, the half-life ([3]; iv, 4.99 mg, Cohort 2, mean dose 4.99 mg, IV infusion during CABG surgery, mean, read-out: t1/2) was 1.21 h and the half-life ([3]; iv, 12.33 mg, Cohort 3, mean dose 12.33 mg, IV infusion during CABG surgery, mean, read-out: t1/2) was 1.26 h. It also gave a half-life ([3]; iv, 19.57 mg, Cohort 4, mean dose 19.57 mg, IV infusion during CABG surgery, mean, read-out: t1/2) of 1.74 h, a half-life ([3]; iv, 38.01 mg, Cohort 5, mean dose 38.01 mg, IV infusion during CABG surgery, mean, read-out: t1/2) of 1.72 h and an AUC(0-inf) [3, 10] of 152 ng·h/mL. The AUC(0-t) [3, 10] was 125 ng·h/mL, the Cmax [3, 10] was 54.8 ng/mL and the clearance ([3]; Cohort 1, mean dose 1.88 mg, IV infusion during CABG surgery, mean, read-out: Cl) was 220 mL/min. For the same compound, the Vd ([3]; Cohort 1, mean dose 1.88 mg, IV infusion during CABG surgery, mean, read-out: Vss) was 12.7 L, the AUC(0-inf) [3, 11] was 334 ng·h/mL and the AUC(0-t) [3, 11] was 278 ng·h/mL. For the same compound, the Cmax [3, 11] was 114 ng/mL, the clearance ([3]; Cohort 2, mean dose 4.99 mg, IV infusion during CABG surgery, mean, read-out: Cl) was 263 mL/min and the Vd ([3]; Cohort 2, mean dose 4.99 mg, IV infusion during CABG surgery, mean, read-out: Vss) was 16.1 L. It also gave an AUC(0-inf) [3, 12] of 991 ng·h/mL, an AUC(0-t) [3, 12] of 905 ng·h/mL and a Cmax [3, 12] of 288 ng/mL. The clearance ([3]; Cohort 3, mean dose 12.33 mg, IV infusion during CABG surgery, mean, read-out: Cl) was 199 mL/min, the Vd ([3]; Cohort 3, mean dose 12.33 mg, IV infusion during CABG surgery, mean, read-out: Vss) was 12.3 L and the AUC(0-inf) [3, 13] was 1880 ng·h/mL. The AUC(0-t) [3, 13] was 1640 ng·h/mL, the Cmax [3, 13] was 564 ng/mL and the clearance ([3]; Cohort 4, mean dose 19.57 mg, IV infusion during CABG surgery, mean, read-out: Cl) was 179 mL/min. It also gave a Vd ([3]; Cohort 4, mean dose 19.57 mg, IV infusion during CABG surgery, mean, read-out: Vss) of 17.4 L, an AUC(0-inf) [3, 14] of 4060 ng·h/mL and an AUC(0-t) [3, 14] of 3620 ng·h/mL. The Cmax [3, 14] was 1150 ng/mL, the clearance ([3]; Cohort 5, mean dose 38.01 mg, IV infusion during CABG surgery, mean, read-out: Cl) was 153 mL/min and the Vd ([3]; Cohort 5, mean dose 38.01 mg, IV infusion during CABG surgery, mean, read-out: Vss) was 15.1 L. The plasma levels abated ([3]; within 4 hours of the end of infusion) was 85%, the “troponin T, CK-MB, prothrombin fragment F1+2, interleukins IL-6 and IL-10, ALAT, ASAT, serum creatinine vs. placebo” value ([4]; patients treated with MDCO-2010 vs. placebo, results not shown) was “No differences” and the “safety profile of escalating doses” value ([4]; primary CABG surgery, first-in-patient study) was “acceptable safety profile”. For the same compound, the “inhibition of plasma kallikrein” value (plasma kallikrein) was “potent inhibitor”, the inhibition of plasmin (plasmin) was “potent inhibitor” and the “inhibition of activated Protein C” value (activated Protein C) was “inhibits”.
